Results: PubChem BioAssay AID2060487 (Molecular Pharmacology Branch, DTP, NCI, 2025)
pIC50: −log10 of the molar value.

System: 997537-175-T-J1-PDC complex spheroid viability
Assay: Anticancer human tumor 997537-175-T-J1-PDC patient-derived colon adenocarcinoma cell line growth inhibition [GQUAD]
Conditions: for pIC50: curve of first compound; for viability, T/C: stronger effect = lower value
Summary of the method: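 Tumor cells were grown as complex spheroids with HUVEC endothelial cells and mesenchymal stem cells as stroma. G-quadruplex stabilizers were combined with targeted agents over half-log dilutions from near the clinical Cmax, or from 10 microM.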

[1] = second compound 0.0316 µM, first compound 0.0316 µM
[2] = second compound 0.0316 µM, first compound 0.1 µM
[3] = second compound 0.0316 µM, first compound 0.316 µM
[4] = second compound 0.0316 µM, first compound 1 µM
[5] = second compound 0.0316 µM, first compound 3.16 µM
[6] = second compound 0.0316 µM, first compound 10 µM
[7] = second compound 0.1 µM, first compound 0.0316 µM
[8] = second compound 0.1 µM, first compound 0.1 µM
[9] = second compound 0.1 µM, first compound 0.316 µM
[10] = second compound 0.1 µM, first compound 1 µM
[11] = second compound 0.1 µM, first compound 3.16 µM
[12] = second compound 0.1 µM, first compound 10 µM
[13] = second compound 0.316 µM, first compound 0.0316 µM
[14] = second compound 0.316 µM, first compound 0.1 µM
[15] = second compound 0.316 µM, first compound 0.316 µM
[16] = second compound 0.316 µM, first compound 1 µM
[17] = second compound 0.316 µM, first compound 3.16 µM
[18] = second compound 0.316 µM, first compound 10 µM
[19] = second compound 1 µM, first compound 0.0316 µM
[20] = second compound 1 µM, first compound 0.1 µM
[21] = second compound 1 µM, first compound 0.316 µM
[22] = second compound 1 µM, first compound 1 µM
[23] = second compound 1 µM, first compound 3.16 µM
[24] = second compound 1 µM, first compound 10 µM
[25] = second compound 3.16 µM, first compound 0.0316 µM
[26] = second compound 3.16 µM, first compound 0.1 µM
[27] = second compound 3.16 µM, first compound 0.316 µM
[28] = second compound 3.16 µM, first compound 1 µM
[29] = second compound 3.16 µM, first compound 3.16 µM
[30] = second compound 3.16 µM, first compound 10 µM
[31] = second compound 10 µM, first compound 0.0316 µM
[32] = second compound 10 µM, first compound 0.1 µM
[33] = second compound 10 µM, first compound 0.316 µM
[34] = second compound 10 µM, first compound 1 µM
[35] = second compound 10 µM, first compound 3.16 µM
[36] = second compound 10 µM, first compound 10 µM
[37] = second compound 0.0316 µM, first compound 0.000999 µM
[38] = second compound 0.0316 µM, first compound 0.00316 µM
[39] = second compound 0.0316 µM, first compound 0.00999 µM
[40] = second compound 0.0316 µM, first compound 0.0999 µM
[41] = second compound 0.1 µM, first compound 0.000999 µM
[42] = second compound 0.1 µM, first compound 0.00316 µM
[43] = second compound 0.1 µM, first compound 0.00999 µM
[44] = second compound 0.1 µM, first compound 0.0999 µM
[45] = second compound 0.316 µM, first compound 0.000999 µM
[46] = second compound 0.316 µM, first compound 0.00316 µM
[47] = second compound 0.316 µM, first compound 0.00999 µM
[48] = second compound 0.316 µM, first compound 0.0999 µM
[49] = second compound 1 µM, first compound 0.000999 µM
[50] = second compound 1 µM, first compound 0.00316 µM
[51] = second compound 1 µM, first compound 0.00999 µM
[52] = second compound 1 µM, first compound 0.0999 µM
[53] = second compound 3.16 µM, first compound 0.000999 µM
[54] = second compound 3.16 µM, first compound 0.00316 µM
[55] = second compound 3.16 µM, first compound 0.00999 µM
[56] = second compound 3.16 µM, first compound 0.0999 µM
[57] = second compound 10 µM, first compound 0.000999 µM
[58] = second compound 10 µM, first compound 0.00316 µM
[59] = second compound 10 µM, first compound 0.00999 µM
[60] = second compound 10 µM, first compound 0.0999 µM
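Further: spheroids exposed to the agents for 7 days.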
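Wherever viability, T/C is given: 100% = DMSO vehicle control viability.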

## C=CC(=O)N1CCN(c2nc(=O)n(-c3c(C)ccnc3C(C)C)c3nc(-c4c(O)cccc4F)c(F)cc23)C(C)C1 (stereo not drawn) + Cc1[nH]c2ccc(F)cc2c1-c1nc2c3cccnc3c3ncccc3c2[nH]1
Second compound 0.0316 µM
  pIC50: < 5.00
Second compound 0.1 µM
  pIC50: < 5.00
Second compound 0.316 µM
  pIC50: < 5.00
Second compound 1 µM
  pIC50: < 5.00
Second compound 3.16 µM
  pIC50: < 5.00
Second compound 10 µM
  pIC50: < 5.00
[1]
  viability, T/C: 102%
[2]
  viability, T/C: 89.9%
[3]
  viability, T/C: 86.2%
[4]
  viability, T/C: 92.5%
[5]
  viability, T/C: 91.7%
[6]
  viability, T/C: 97.5%
[7]
  viability, T/C: 91.1%
[8]
  viability, T/C: 71.1%
[9]
  viability, T/C: 87.9%
[10]
  viability, T/C: 75.4%
[11]
  viability, T/C: 101%
[12]
  viability, T/C: 92%
[13]
  viability, T/C: 92.4%
[14]
  viability, T/C: 65.8%
[15]
  viability, T/C: 74.8%
[16]
  viability, T/C: 85.9%
[17]
  viability, T/C: 95.3%
[18]
  viability, T/C: 96.5%
[19]
  viability, T/C: 92.8%
[20]
  viability, T/C: 89.9%
[21]
  viability, T/C: 87.9%
[22]
  viability, T/C: 83.2%
[23]
  viability, T/C: 90.2%
[24]
  viability, T/C: 97.6%
[25]
  viability, T/C: 80.7%
[26]
  viability, T/C: 72.5%
[27]
  viability, T/C: 74.3%
[28]
  viability, T/C: 89%
[29]
  viability, T/C: 100%
[30]
  viability, T/C: 80%
[31]
  viability, T/C: 82.3%
[32]
  viability, T/C: 75.8%
[33]
  viability, T/C: 87.3%
[34]
  viability, T/C: 69.8%
[35]
  viability, T/C: 79.3%
[36]
  viability, T/C: 84.3%

## CCc1c2c(nc3ccc(O)cc13)-c1cc3c(c(=O)n1C2)COC(=O)[C@]3(O)CC + Cc1[nH]c2ccc(F)cc2c1-c1nc2c3cccnc3c3ncccc3c2[nH]1
Second compound 0.0316 µM
  pIC50: 7.92
Second compound 0.1 µM
  pIC50: 8.04
Second compound 0.316 µM
  pIC50: 7.92
Second compound 1 µM
  pIC50: 8.07
Second compound 3.16 µM
  pIC50: 7.97
Second compound 10 µM
  pIC50: 8.19
[37]
  viability, T/C: 84.3%
[38]
  viability, T/C: 94.4%
[39]
  viability, T/C: 54.2%
[1]
  viability, T/C: 16.6%
[40]
  viability, T/C: 7.8%
[3]
  viability, T/C: 2.95%
[41]
  viability, T/C: 75%
[42]
  viability, T/C: 74.8%
[43]
  viability, T/C: 45.2%
[7]
  viability, T/C: 22%
[44]
  viability, T/C: 5.55%
[9]
  viability, T/C: 2.19%
[45]
  viability, T/C: 90.5%
[46]
  viability, T/C: 94.3%
[47]
  viability, T/C: 53.3%
[13]
  viability, T/C: 19.2%
[48]
  viability, T/C: 7.44%
[15]
  viability, T/C: 2.71%
[49]
  viability, T/C: 81.9%
[50]
  viability, T/C: 76.6%
[51]
  viability, T/C: 44.4%
[19]
  viability, T/C: 19.6%
[52]
  viability, T/C: 6.99%
[21]
  viability, T/C: 7.31%
[53]
  viability, T/C: 69%
[54]
  viability, T/C: 56.6%
[55]
  viability, T/C: 54%
[25]
  viability, T/C: 22.1%
[56]
  viability, T/C: 7.42%
[27]
  viability, T/C: 2.8%
[57]
  viability, T/C: 69.2%
[58]
  viability, T/C: 52.8%
[59]
  viability, T/C: 48%
[31]
  viability, T/C: 17.1%
[60]
  viability, T/C: 3.72%
[33]
  viability, T/C: 2.19%

## Cc1cccc(N(C)C(=O)C2C(O)CCN2c2nc(C)cc(C(F)(F)F)c2C#N)c1 (stereo not drawn) + Cc1[nH]c2ccc(F)cc2c1-c1nc2c3cccnc3c3ncccc3c2[nH]1
Second compound 0.0316 µM
  pIC50: < 5.00
Second compound 0.1 µM
  pIC50: < 5.00
Second compound 0.316 µM
  pIC50: < 5.00
Second compound 1 µM
  pIC50: < 5.00
Second compound 3.16 µM
  pIC50: < 5.00
Second compound 10 µM
  pIC50: < 5.00
[1]
  viability, T/C: 104%
[2]
  viability, T/C: 82.7%
[3]
  viability, T/C: 107%
[4]
  viability, T/C: 75.4%
[5]
  viability, T/C: 85.6%
[6]
  viability, T/C: 96%
[7]
  viability, T/C: 101%
[8]
  viability, T/C: 97.8%
[9]
  viability, T/C: 96%
[10]
  viability, T/C: 80.1%
[11]
  viability, T/C: 99%
[12]
  viability, T/C: 90.6%
[13]
  viability, T/C: 101%
[14]
  viability, T/C: 74%
[15]
  viability, T/C: 92.8%
[16]
  viability, T/C: 95%
[17]
  viability, T/C: 100%
[18]
  viability, T/C: 106%
[19]
  viability, T/C: 79.4%
[20]
  viability, T/C: 95.3%
[21]
  viability, T/C: 108%
[22]
  viability, T/C: 85.4%
[23]
  viability, T/C: 104%
[24]
  viability, T/C: 92.7%
[25]
  viability, T/C: 57.9%
[26]
  viability, T/C: 89.9%
[27]
  viability, T/C: 76.9%
[28]
  viability, T/C: 79.2%
[29]
  viability, T/C: 69%
[30]
  viability, T/C: 85.6%
[31]
  viability, T/C: 80.5%
[32]
  viability, T/C: 93.8%
[33]
  viability, T/C: 80.6%
[34]
  viability, T/C: 76.8%
[35]
  viability, T/C: 105%
[36]
  viability, T/C: 95.6%

## Cn1ncnc1[C@H]1c2n[nH]c(=O)c3cc(F)cc(c23)N[C@@H]1c1ccc(F)cc1 + Cc1[nH]c2ccc(F)cc2c1-c1nc2c3cccnc3c3ncccc3c2[nH]1
Second compound 0.0316 µM
  pIC50: < 6.50
Second compound 0.1 µM
  pIC50: < 6.50
Second compound 0.316 µM
  pIC50: < 6.50
Second compound 1 µM
  pIC50: < 6.50
Second compound 3.16 µM
  pIC50: < 6.50
Second compound 10 µM
  pIC50: < 6.50
[37]
  viability, T/C: 101%
[38]
  viability, T/C: 99.5%
[39]
  viability, T/C: 104%
[1]
  viability, T/C: 71%
[40]
  viability, T/C: 82.5%
[3]
  viability, T/C: 83.1%
[41]
  viability, T/C: 103%
[42]
  viability, T/C: 102%
[43]
  viability, T/C: 84.4%
[7]
  viability, T/C: 65.1%
[44]
  viability, T/C: 106%
[9]
  viability, T/C: 96.2%
[45]
  viability, T/C: 102%
[46]
  viability, T/C: 103%
[47]
  viability, T/C: 87.1%
[13]
  viability, T/C: 75.8%
[48]
  viability, T/C: 99.7%
[15]
  viability, T/C: 93.1%
[49]
  viability, T/C: 83.7%
[50]
  viability, T/C: 74.6%
[51]
  viability, T/C: 91.2%
[19]
  viability, T/C: 81.3%
[52]
  viability, T/C: 96.5%
[21]
  viability, T/C: 87.8%
[53]
  viability, T/C: 84.7%
[54]
  viability, T/C: 73.2%
[55]
  viability, T/C: 73.3%
[25]
  viability, T/C: 70.6%
[56]
  viability, T/C: 101%
[27]
  viability, T/C: 84.2%
[57]
  viability, T/C: 78%
[58]
  viability, T/C: 61.3%
[59]
  viability, T/C: 89.8%
[31]
  viability, T/C: 62.9%
[60]
  viability, T/C: 92.5%
[33]
  viability, T/C: 95.3%
